Test results published in ChEMBL document CHEMBL1201862, “PubChem BioAssay data set” (2004).
Active and inactive are the calls of the source.

Legend:
[1] = molecular target: T1, Voltage-gated N-type calcium channel alpha-1B subunit/Amyloid beta A4 precursor protein-binding family A member 1 (Homo sapiens, UniProt Q00975+Q02410); type: protein assay
[2] = molecular target: T1, Voltage-gated N-type calcium channel alpha-1B subunit/Amyloid beta A4 precursor protein-binding family A member 1; type: protein assay; remark: listed apart in the source
[3] = molecular target: T2, Kappa-type opioid receptor (Homo sapiens, UniProt P41145); type: functional
[4] = molecular target: Beta-galactosidase (Escherichia coli, UniProt Q8VNN2); type: functional
[5] = molecular target: T2, Kappa-type opioid receptor; type: functional; remark: listed apart in the source
[6] = molecular target: Nonstructural protein 1 (Influenza A virus, UniProt Q194T2); type: functional, Influenza A virus (A/California/07/2009(H1N1))
[7] = molecular target: T3, Microphthalmia-associated transcription factor (Homo sapiens, UniProt O75030); test: reducers of TRPM1 reporter luminescence, concentration series – cell-based, SK-MEL-5, cherry-picked, set 3, MITF inhibitor project, dose response (AID 493073); type: functional;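 further: SK-MEL-5 melanoma cells with luciferase driven by the MITF target TRPM1 promoter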
T3 sequence (O75030 whole entry): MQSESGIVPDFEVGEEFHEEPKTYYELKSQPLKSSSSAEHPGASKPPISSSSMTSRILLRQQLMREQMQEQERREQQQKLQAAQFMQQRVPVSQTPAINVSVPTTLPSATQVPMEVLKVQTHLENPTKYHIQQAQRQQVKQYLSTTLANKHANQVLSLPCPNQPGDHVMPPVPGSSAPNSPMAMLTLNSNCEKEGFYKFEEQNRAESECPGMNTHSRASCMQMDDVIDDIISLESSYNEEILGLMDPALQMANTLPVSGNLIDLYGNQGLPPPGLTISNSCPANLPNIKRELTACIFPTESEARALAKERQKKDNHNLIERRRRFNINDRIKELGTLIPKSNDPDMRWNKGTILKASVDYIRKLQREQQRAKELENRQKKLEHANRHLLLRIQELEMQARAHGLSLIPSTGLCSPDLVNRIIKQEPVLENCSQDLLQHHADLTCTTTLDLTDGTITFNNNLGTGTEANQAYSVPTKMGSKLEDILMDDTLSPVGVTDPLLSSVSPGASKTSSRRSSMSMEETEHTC

[8] = molecular target: SUMO-activating enzyme (Homo sapiens, UniProt Q9UBT2); test: blockers of UBC9-mediated SUMO conjugation – biochemical, AlphaScreen, SUMOylation inhibitor project, confirmation (AID 2018); type: functional
[9] = viability loss in THP-1 monocytes – THP-1 cells, cytotoxicity control for Vif-APOBEC3G degradation inhibitor project, dose response (AID 1117359); type: functional; conditions: THP-1
[10] = NIH-3T3 fibroblast cytotoxicity, dose response, cytotoxicity control, cell-based, fluorescence, Alamar Blue, secondary assay (AID 2327); type: functional;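 further: NIH-3T3 mouse fibroblasts cultured with fluconazole at 8 µg/mL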
[11] = molecular target: T4, Delta-type opioid receptor (Homo sapiens, UniProt P41143); test: HTS Image-Based Screen for Antagonists of the DOR Receptor. [Related pubchem assays (depositor defined):AID1777, AID1785, AID1786, AID2133]; type: functional
[12] = molecular target: Mu-type opioid receptor (Homo sapiens, UniProt P35372); test: HTS Image-Based Screen for Agonists of the MOR Receptor. [Related pubchem assays (depositor defined):AID1777, AID1785, AID1786, AID2133]; type: functional;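 further: imaging of beta-arrestin GFP recruitment into spots after receptor activation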
[13] = molecular target: T4, Delta-type opioid receptor; test: HTS Image-Based Screen for Agonists of the DOR Receptor. [Related pubchem assays (depositor defined):AID1777, AID1786, AID2133]; type: functional
[14] = fluconazole-exposed Candida albicans growth modulators – fluorescence, retest, confirmation (AID 2467); type: functional, cell-based
[15] = Trypanosoma cruzi growth suppression in host cells – NIH3T3 host cells, beta-gal luminescence, confirmation (AID 2044); type: functional, cell-based;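 further: intracellular parasites grown in NIH/3T3 mouse fibroblasts as host cells; luminescent beta-galactosidase reporter signal from transgenic T. cruzi replicating inside host cells; inhibitors lower the luminescence signal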
[16] = NIH3T3 cell viability loss – ATP luminescence, mouse fibroblasts, counter-screen, dose response (AID 2010); type: functional, cell-based;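 further: cells exposed to compound for about 90 hours before reading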
[17] = bead-based luminescence quenchers, dual-tagged ARNT – biochemical, AlphaScreen, cherry-pick, artefact control for ARNT-TACC3 interaction inhibitor project, dose response (AID 651705); type: functional;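 further: AlphaScreen bead proximity signal that flags compounds interfering with the detection technology; potency reflects signal decrease which marks the compound as an assay artifact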
[18] = molecular target: T5, Calpain-2 catalytic subunit (Sus scrofa, UniProt P43367); test: m-calpain protease blockers, concentration series – biochemical, fluorogenic peptide substrate, dose response (AID 1420); type: functional
T5 sequence (P43367 whole entry): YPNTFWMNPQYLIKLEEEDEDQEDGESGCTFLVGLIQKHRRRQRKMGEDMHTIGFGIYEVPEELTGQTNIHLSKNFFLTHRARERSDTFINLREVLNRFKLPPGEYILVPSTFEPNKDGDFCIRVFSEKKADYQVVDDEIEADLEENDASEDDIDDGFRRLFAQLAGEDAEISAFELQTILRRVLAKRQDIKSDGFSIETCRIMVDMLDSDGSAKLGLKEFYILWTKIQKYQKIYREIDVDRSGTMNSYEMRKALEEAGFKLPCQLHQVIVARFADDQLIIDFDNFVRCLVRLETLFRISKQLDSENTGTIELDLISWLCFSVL

[19] = molecular target: Lysine-specific demethylase 4C (Homo sapiens, UniProt Q9H3R0); test: inhibition of JMJD2C H3K9me3 demethylation – biochemical, DELFIA europium, cherry-picked samples, dose response (AID 488835); type: functional
[20] = molecular target: T6, Hepatocyte nuclear factor 4-alpha (Homo sapiens, UniProt P41235); type: functional, cell-based;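 further: biochemical luminescence-based dose-response counterscreen measuring inhibition of HNF4 dimerization, run alongside a screen for blockers of ABHD5–perilipin-5 interaction; split luciferase complementation of HNF4 fusion proteins in cell lysate measuring dimerization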
T6 sequence (P41235 whole entry): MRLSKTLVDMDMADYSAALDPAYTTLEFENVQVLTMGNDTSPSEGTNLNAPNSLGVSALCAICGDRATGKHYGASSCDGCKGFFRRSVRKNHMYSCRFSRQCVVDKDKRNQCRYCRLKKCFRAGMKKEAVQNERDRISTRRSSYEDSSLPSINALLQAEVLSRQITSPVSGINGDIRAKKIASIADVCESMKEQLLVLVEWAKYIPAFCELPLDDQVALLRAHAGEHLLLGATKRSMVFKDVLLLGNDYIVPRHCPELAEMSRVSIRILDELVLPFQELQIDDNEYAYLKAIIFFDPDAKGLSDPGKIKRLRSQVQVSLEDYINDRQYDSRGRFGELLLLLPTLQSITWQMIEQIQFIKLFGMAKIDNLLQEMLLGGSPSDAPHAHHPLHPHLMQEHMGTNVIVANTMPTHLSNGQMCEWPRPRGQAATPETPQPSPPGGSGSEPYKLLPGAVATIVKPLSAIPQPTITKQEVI

[21] = molecular target: T7, Corticotropin-releasing factor receptor 2/Corticotropin-releasing factor-binding protein (Homo sapiens, UniProt P24387+Q13324); test: Dose Response confirmation of uHTS hits for small molecule antagonists of the CRF-binding protein and CRF-R2 receptor complex.; type: functional; conditions: read-out: IC50_Mean
T7 sequence (Q13324 whole entry): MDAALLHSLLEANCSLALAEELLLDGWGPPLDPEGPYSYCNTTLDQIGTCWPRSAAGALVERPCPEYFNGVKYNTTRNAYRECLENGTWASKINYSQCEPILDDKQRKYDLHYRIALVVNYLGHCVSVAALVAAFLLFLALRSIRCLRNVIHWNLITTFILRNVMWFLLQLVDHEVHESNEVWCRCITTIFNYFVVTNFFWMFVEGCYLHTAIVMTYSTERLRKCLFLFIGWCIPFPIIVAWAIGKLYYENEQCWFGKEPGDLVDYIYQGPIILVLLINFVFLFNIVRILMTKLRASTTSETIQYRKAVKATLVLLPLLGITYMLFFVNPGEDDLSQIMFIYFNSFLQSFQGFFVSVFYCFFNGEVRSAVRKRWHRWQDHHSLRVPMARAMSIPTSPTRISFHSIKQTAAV
T7 sequence (P24387 whole entry): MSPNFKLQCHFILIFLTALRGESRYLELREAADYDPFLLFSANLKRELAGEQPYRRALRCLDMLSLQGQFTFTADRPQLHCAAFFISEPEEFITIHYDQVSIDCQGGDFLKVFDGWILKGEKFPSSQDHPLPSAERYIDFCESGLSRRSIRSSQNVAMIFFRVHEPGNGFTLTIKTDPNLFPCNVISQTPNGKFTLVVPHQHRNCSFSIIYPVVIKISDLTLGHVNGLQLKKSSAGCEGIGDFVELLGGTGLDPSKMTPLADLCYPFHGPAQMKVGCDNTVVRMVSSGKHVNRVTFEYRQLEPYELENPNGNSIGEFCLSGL

[22] = molecular target: T7, Corticotropin-releasing factor receptor 2/Corticotropin-releasing factor-binding protein; test: activators of CRF receptor 2 with binding protein – uHTS hits, confirmation (AID 602473); type: functional; conditions: read-out: EC50_Mean
[23] = molecular target: T8, Tyrosine-protein phosphatase non-receptor type 7 (Homo sapiens, UniProt P35236); test: inhibition of hematopoietic tyrosine phosphatase HePTP – biochemical, set 2, SAR follow-up (AID 449736); type: functional
T8 sequence (P35236 whole entry): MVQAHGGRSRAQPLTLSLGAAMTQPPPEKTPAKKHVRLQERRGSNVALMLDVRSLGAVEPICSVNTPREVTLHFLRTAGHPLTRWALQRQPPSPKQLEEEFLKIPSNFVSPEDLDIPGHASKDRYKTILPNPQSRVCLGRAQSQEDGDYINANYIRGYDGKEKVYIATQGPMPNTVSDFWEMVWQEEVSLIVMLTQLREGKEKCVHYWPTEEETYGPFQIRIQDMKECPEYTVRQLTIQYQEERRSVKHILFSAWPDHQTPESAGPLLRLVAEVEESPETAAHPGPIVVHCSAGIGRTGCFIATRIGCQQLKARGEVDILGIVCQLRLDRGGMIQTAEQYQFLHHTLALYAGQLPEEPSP

[24] = Luminescence Cell-Based Dose Confirmation HTS to Identify Activators of 5'UTR Stem-Loop Driven Alpha-Synuclein mRNA Translation in H4 Neuroglioblastoma Cells. [Related pubchem assays: 1829 (Project Summary), 1814 (Primary HTS)]; type: functional
[25] = Luminescence Cell-Based Dose Response HTS to Identify Activators of Luciferase Translation or Activity in H4 […] Cells. [Related pubchem assays: 1829 (Project Summary), 1814 (Primary HTS)]; type: functional
[26] = tested on: H4; test: Luminescence Cell-Based Dose Response HTS to Identify Activators of 5'UTR Stem-Loop Driven Prion Protein mRNA Translation in H4 Neuroglioblastoma Cells. [Related pubchem assays: 1829 (Project Summary), 1814 (Primary HTS)]; type: functional; conditions: Homo sapiens
[27] = molecular target: Trypsin (Sus scrofa, UniProt P00761); test: trypsin protease activity blockade – biochemical, quenched peptide fluorescence, cherry-pick, selectivity assay for Rce1 protease inhibitor project, dose response (AID 488789)
[28] = molecular target: T9, CAAX prenyl protease 2 (Saccharomyces cerevisiae S288c, UniProt Q03530); type: biochemical
T9 sequence (Q03530 whole entry): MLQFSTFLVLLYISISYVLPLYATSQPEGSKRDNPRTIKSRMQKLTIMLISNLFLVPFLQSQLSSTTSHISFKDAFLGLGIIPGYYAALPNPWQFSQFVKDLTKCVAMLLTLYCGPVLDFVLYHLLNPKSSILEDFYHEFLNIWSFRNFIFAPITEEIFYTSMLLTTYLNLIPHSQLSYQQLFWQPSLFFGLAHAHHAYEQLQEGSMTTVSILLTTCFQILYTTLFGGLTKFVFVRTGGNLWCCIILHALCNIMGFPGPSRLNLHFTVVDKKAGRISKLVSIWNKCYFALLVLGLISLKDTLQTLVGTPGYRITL

[29] = tested on: H9c2; test: cells; type: functional, cell-based; conditions: Rattus norvegicus, H9c2, Myocardium;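 further: confirmatory concentration-response retest of ultra-high-throughput screening hits for modulation of myocardial damage; cell death induced by hydrogen peroxide oxidative stress; compound pretreatment for 60 min then peroxide exposure for 2 h; potency is for protecting the cells against peroxide damage rather than for killing them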
[30] = molecular target: Alkaline phosphatase, placental type (Homo sapiens, UniProt P05187); test: human placental alkaline phosphatase inhibition – biochemical, luminescence, confirmation (AID 1512); type: functional
Chain of Alkaline phosphatase, placental type (P05187 whole entry): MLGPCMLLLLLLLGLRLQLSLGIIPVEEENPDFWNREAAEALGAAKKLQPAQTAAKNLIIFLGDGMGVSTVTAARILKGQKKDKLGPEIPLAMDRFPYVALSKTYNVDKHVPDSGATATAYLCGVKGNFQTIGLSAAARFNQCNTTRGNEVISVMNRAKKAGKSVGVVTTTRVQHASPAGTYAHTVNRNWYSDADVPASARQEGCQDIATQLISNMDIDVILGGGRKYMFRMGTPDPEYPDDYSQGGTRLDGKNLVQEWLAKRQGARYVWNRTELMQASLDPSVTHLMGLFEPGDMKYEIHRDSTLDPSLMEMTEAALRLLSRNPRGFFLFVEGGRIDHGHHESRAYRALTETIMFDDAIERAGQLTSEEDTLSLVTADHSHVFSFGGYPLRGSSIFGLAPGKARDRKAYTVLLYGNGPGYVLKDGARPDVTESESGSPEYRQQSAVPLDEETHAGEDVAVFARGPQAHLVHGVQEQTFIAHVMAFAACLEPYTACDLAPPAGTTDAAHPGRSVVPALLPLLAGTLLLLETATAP

T2 sequence (P41145 whole entry): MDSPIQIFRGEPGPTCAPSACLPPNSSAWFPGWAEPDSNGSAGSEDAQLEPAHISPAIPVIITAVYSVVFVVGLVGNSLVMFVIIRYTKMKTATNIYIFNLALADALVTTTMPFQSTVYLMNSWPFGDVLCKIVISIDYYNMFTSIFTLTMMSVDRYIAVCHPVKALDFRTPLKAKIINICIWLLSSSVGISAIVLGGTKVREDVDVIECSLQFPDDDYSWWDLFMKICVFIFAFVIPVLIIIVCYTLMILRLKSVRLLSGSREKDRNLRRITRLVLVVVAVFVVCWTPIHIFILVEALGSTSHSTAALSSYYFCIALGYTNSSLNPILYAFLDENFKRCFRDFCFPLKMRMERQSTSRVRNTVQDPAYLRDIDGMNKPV
T1 sequence (Q00975 whole entry): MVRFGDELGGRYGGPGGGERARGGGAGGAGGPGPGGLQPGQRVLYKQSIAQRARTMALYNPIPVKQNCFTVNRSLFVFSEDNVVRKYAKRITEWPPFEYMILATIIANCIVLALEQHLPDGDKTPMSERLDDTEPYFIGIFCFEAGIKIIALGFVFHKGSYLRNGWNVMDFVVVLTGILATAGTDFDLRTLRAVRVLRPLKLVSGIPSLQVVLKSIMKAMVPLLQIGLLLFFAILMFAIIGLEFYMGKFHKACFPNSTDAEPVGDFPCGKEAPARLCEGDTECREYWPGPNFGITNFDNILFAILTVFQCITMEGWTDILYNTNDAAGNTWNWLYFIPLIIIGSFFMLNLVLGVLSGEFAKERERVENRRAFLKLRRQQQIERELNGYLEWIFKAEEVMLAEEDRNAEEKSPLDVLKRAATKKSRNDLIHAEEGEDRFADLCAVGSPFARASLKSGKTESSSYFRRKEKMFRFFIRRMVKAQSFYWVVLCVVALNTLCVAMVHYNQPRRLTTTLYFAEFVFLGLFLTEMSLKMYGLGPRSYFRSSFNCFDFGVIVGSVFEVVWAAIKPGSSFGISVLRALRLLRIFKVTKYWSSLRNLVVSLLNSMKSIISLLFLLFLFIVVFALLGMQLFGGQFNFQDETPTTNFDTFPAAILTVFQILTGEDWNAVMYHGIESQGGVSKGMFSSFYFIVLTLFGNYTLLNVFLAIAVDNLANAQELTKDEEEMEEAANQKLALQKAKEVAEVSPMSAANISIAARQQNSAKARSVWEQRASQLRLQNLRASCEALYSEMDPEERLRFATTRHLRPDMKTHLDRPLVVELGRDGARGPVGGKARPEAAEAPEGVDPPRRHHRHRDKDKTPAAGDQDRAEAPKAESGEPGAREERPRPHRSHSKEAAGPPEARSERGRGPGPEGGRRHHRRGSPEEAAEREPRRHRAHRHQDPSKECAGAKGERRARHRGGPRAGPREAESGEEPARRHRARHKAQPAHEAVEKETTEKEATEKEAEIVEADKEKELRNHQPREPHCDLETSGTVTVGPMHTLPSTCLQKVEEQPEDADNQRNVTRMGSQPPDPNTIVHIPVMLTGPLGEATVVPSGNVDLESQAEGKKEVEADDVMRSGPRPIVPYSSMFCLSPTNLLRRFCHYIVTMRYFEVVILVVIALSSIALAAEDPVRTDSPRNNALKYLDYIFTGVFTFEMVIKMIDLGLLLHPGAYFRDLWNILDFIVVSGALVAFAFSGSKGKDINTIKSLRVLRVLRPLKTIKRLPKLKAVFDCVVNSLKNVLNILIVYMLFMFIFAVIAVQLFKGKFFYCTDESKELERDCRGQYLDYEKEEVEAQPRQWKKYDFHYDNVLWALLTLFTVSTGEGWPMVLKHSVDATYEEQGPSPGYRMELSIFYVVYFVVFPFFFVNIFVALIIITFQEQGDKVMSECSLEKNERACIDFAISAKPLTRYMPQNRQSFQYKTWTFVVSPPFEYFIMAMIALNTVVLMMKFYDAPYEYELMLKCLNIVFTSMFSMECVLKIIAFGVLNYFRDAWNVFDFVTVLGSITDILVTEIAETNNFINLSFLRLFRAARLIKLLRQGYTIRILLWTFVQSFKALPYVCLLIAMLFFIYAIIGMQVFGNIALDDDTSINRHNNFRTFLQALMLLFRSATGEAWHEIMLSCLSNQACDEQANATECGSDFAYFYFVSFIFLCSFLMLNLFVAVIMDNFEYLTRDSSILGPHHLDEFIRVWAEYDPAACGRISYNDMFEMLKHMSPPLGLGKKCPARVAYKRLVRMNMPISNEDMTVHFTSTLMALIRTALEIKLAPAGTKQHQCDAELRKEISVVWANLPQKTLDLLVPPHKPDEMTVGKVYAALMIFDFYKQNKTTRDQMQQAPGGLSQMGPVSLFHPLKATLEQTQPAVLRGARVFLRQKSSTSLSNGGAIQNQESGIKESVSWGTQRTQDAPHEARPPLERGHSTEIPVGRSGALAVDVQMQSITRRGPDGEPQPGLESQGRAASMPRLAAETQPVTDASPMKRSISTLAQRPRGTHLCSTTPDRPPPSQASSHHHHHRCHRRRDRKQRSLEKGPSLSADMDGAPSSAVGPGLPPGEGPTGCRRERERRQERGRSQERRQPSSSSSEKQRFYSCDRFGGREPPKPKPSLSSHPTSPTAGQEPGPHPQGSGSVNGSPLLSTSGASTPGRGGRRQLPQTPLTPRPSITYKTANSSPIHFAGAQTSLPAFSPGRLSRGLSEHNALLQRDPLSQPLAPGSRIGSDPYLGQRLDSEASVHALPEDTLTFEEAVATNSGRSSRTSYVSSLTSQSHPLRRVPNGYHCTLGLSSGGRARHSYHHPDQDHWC
T1 sequence (Q02410 whole entry): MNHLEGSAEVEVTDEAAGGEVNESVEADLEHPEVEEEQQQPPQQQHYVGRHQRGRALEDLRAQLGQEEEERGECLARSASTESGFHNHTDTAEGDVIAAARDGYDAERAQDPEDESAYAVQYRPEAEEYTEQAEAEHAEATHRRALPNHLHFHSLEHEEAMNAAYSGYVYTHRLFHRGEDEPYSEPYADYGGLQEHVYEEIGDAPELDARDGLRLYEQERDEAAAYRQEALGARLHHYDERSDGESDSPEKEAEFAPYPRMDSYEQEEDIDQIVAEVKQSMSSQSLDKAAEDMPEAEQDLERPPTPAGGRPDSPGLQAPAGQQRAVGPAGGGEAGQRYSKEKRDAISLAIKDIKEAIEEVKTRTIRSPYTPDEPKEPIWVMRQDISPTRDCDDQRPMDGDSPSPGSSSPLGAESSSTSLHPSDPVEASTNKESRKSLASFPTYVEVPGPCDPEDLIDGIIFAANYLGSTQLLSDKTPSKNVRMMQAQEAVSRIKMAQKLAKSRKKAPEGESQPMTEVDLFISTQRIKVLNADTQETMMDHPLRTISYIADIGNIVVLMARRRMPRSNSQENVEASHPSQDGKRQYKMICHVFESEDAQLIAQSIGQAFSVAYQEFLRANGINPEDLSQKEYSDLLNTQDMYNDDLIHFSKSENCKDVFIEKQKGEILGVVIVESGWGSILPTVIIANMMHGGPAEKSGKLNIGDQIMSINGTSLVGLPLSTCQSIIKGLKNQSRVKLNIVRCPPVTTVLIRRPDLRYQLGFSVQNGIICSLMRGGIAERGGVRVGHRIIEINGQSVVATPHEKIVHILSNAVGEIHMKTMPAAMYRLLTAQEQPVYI
Chain of Beta-galactosidase (Q8VNN2 whole entry): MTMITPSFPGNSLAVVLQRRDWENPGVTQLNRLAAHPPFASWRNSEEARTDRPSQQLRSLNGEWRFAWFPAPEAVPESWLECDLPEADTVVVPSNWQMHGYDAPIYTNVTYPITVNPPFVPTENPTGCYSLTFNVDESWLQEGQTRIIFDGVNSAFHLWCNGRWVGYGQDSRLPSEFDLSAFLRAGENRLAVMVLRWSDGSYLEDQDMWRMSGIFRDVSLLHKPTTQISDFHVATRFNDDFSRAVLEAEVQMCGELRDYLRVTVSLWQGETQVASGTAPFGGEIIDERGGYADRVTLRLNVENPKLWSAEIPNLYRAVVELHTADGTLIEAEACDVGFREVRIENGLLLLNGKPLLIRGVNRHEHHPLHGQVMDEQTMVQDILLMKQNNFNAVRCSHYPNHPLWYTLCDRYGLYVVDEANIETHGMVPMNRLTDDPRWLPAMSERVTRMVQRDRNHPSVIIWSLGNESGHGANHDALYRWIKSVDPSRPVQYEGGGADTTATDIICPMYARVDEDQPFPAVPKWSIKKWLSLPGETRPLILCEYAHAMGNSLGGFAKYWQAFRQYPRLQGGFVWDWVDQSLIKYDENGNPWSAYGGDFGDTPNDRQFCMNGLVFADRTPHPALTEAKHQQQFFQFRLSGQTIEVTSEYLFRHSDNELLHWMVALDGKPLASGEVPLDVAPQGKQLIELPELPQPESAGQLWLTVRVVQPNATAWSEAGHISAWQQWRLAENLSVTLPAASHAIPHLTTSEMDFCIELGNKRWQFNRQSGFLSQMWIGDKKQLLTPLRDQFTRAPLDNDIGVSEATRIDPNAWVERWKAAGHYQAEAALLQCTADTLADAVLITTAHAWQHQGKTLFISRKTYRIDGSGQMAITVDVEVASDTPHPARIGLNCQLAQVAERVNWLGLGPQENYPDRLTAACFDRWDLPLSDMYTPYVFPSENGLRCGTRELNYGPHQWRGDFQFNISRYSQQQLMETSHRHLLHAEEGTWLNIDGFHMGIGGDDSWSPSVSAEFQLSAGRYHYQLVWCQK

COc1cc(NC(=O)c2cccs2)ccc1NC(=O)c1cc2ccccc2o1
IC50 [1]: 11.2 µM (active)
IC50 [2]: > 50 µM (inactive)

C/C(=N\NC(=O)C1COc2ccccc2O1)c1ccccn1 (stereo not drawn)
IC50 [3]: 6.93 µM (active)
EC50 [4]: > 31.5 µM (inactive)
IC50 [5]: > 32 µM
IC50 [6]: 5.62 µM (active)
AC50 [7]: 4.49 µM (active)

COc1ccc(/C=C/c2nnc(NC(=O)CSc3ccc(C)cc3)s2)cc1
IC50 [8]: > 100 µM (inactive)
CC50 [9]: > 40 µM (active)

O=S(=O)(Nc1cccc2cccnc12)c1ccc(S(=O)(=O)N2CCCC2)cc1
EC50 [10]: 17.2 µM (active)
IC50 [11]: > 32 µM (inactive)
EC50 [12]: > 32 µM (inactive)
EC50 [13]: > 32 µM (inactive)
EC50 [14]: 4.29 µM (active)
EC50 [15]: 2.33 µM (active)
IC50 [3]: 8.52 µM (active)
EC50 [16]: 5.05 µM (active)
EC50 [4]: > 31.5 µM (inactive)
IC50 [5]: > 32 µM
AC50 [17]: 110 µM (active)

CC1CN(Cc2c(O)ccc3c2oc(=O)c2ccccc23)CC(C)O1 (stereo not drawn)
IC50 [18]: 3.06 µM (not active)
AC50 [19]: 0.95 µM (active)
IC50 [20]: 2.68 µM (active)

O=C(CC1SC(N/N=C/C=C/c2ccccc2)=NC1=O)Nc1ccc(Cl)c(Cl)c1 (stereo not drawn)
IC50 [8]: 34.6 µM (active)
IC50 [21]: > 47.1 µM (inactive)
EC50 [22]: > 53 µM (inactive)

NS(=O)(=O)c1ccc(NC(=S)NC2CCN(Cc3ccccc3)CC2)cc1
IC50 [23]: > 100 µM (inactive)

NC1=C(c2nc(-c3ccc(Cl)cc3)cs2)C(=O)CN1NC(=O)c1ccc(O)cc1
EC50 [24]: > 120 µM (not active)
EC50 [25]: 9.72 µM (active)
EC50 [26]: 94.6 µM (active)
IC50 [1]: 7.51 µM (active)
IC50 [2]: > 50 µM (inactive)

NC(=O)c1nsc(C(=O)N(c2ccccc2F)C(C(=O)NCc2ccccc2)c2ccc(O)cc2)c1N (stereo not drawn)
AC50 [27]: 12 µM (active)
AC50 [28]: 13.8 µM (active)
IC50 [29]: > 79 µM (inactive)

COC(=O)c1ccc(CSc2nc(O)c3c(C)c(C(=O)O)sc3n2)cc1
AC50 [19]: 10.6 µM (active)

Cc1cccc2nc(CSc3nc4ccccc4[nH]3)cn12
IC50 [30]: > 100 µM (inactive)

NC1(C(Cl)(Cl)Cl)Oc2cc(Cl)c(Cl)cc2O1
IC50 [30]: > 100 µM (inactive)
